# In patent US10772911B2, “Cell free compositions for cellular restoration and methods of making and using same” (Advanced ReGen Medical Technologies, LLC, priority 2013, dated 2020):
# Key:
# Assay type in all cases: cell-based
# restored cells = test: cell morphology in transwell co-culture; settings: co-cultured in the presence of 5 μM manumycin vs absence
# Description: (§1) Receiver cell samples (i.e., R1, R2, and R3) were individually paired with donor cell samples (i.e., D1, D2, and D3) and the pairs co-cultured in a transwell culture cell for four weeks. The morphology of the cells was studied at 2 weeks into the co-culture and at 4 weeks of co-culture. Gene expression arrays, protein arrays, and telomere length experiments compared freshly defrosted cells from the collection tubes (referred to as the baseline donor cell sample or baseline receiver cell sample) with cells at the 4-week study endpoint (referred to as restored cell samples).
# The nature of the soluble particles passing through the permeable membrane in the transwell co-culture experiments was investigated. Specifically, transwell co-culture experiments were carried out in the presence or absence of manumycin. Manumycin, -[(1S,5S,6R)-5-hydroxy-5-[(1E,3E,5E)-7-[(2-hydroxy-5-oxo-1-cyclopenten-1-yl)amino]-7-oxo-1,3,5-heptatrien-1-yl]-2-oxo-7-oxabicyclo[4.1.0]hept-3-en-3-yl]-2E,4E,6R-trimethyl, 2,4-decadienamide, is an antibiotic that acts a potent and selective farnesytransferase inhibitor. Mannumycin is also known to inhibit the release of exosomes. […] Further support for the role of exosome/microvesicles in mediating the disclosed cellular restoration process is shown in FIG. 12.
# senescence-related genes = test: quantitative PCR gene array of senescence-related genes; settings: co-cultured in the presence of manumycin vs absence
# Description: as §1
# (§2) Protein array analyses were carried out using conditioned media from the baseline donor cell sample or baseline receiver cell sample. The conditioned media was mixed with like cellular protein extracts and applied to the custom-designed arrays which consisted of antibody probes for 68 factors linked to cellular aging and senescence, collectively referred to as the senescence-associated secretory factors (SASF). Quantitative PCR gene array analyses were carried out by extracting RNA from the baseline samples or the co-cultured donor and receiver samples. The data presented represents the average metric determined for either the baseline donor cell sample, the baseline receiver cell sample, or the restored cell sample. […]
# telomere length = telomere length of restored cell sample; settings: pair R1-D1, presence vs absence of manumycin; FIG. 12
# Description: In an embodiment, the donor cell sample, receiver cell sample, or both are subjected to at least one analytical technique to characterize the quality of the cell sample. Herein, the “quality” of the cell sample refers to factors used to characterize the cellular health of the sample and includes parameters such as the number and types of cells present in the sample; the ratio of senescent to non-senescent cells in the sample; the extent of expression of a group of genetic and/or protein biomarkers; the average telomere length of the cells in the sample; and the status of the innate immune function of the cells in the sample. Telomere length may be determined using any suitable methodology, for example, terminal restriction fragment (TRF) analysis. Innate immune function may be evaluated using any suitable methodology such as the ^51Cr cytotoxicity release natural killer cell assay. The donor cell sample quality may be an assessment of the ability of the cells in the sample to improve and/or restore one or more cellular functions of the cells in the receiver cell sample.
# Receiver cell samples (i.e., R1, R2, and R3) were individually paired with donor cell samples (i.e., D1, D2, and D3) and the pairs co-cultured in a transwell culture cell for four weeks. The morphology of the cells was studied at 2 weeks into the co-culture and at 4 weeks of co-culture. […]
# [1] = tested on: senescence-associated secretory factors (SASF); test: protein array of senescence-associated secretory factors; settings: co-cultured in the presence of manumycin vs absence; FIG. 11
# Description: as §1, §2
smiles,measurement,setting,value
"CCCC[C@@H](C)/C=C(C)/C=C(\C)C(=O)NC1=C[C@@](O)(/C=C/C=C/C=C/C(=O)NC2=C(O)CCC2=O)[C@@H]2O[C@@H]2C1=O [manumycin, -[(1S,5S,6R)-5-hydroxy-5-[(1E,3E,5E)-7-[(2-hydroxy-5-oxo-1-cyclopenten-1-yl)amino]-7-oxo-1,3,5-heptatrien-1-yl]-2-oxo-7-oxabicyclo[4.1.0]hept-3-en-3-yl]-2E,4E,6R-trimethyl, 2,4-decadienamide]",morphology of restored cells,restored cells,less robust morphology
same,gene expression of restored cell samples,senescence-related genes,did not display a change in expression levels similar to those observed in the absence of manumycin
same,telomere length of restored cell sample,telomere length,decreased
same,protein expression levels of restored cell samples,[1],elevated levels of all proteins investigated
